The values below come from US9096632B2, “Modulator of activity of adenylate cyclase” (Public University Corporation Yokohama City University, priority 2010, dated 2015).

In data set [1] the target is T1, adenylyl cyclase activity in the heart.
T1 construct: IC50 on adenylyl cyclase activity in the heart; other: WT; estimated from 10, 50 and 100 μM
The experiment in a line: Membrane adenylyl cyclase assay, WT heart membrane, forskolin-stimulated. It is filed as biochemical, mouse. The following applies: WT; estimated from 10, 50 and 100 μM; 50 μM forskolin. The text has this: FIG. 3 Inhibitory effects of individual vidarabine derivatives on adenylyl cyclase activity in the striatum, heart and lung. With adenylyl cyclase activity in the presence of […] but in the absence of inhibitors being taken as 100, the reductions in adenylyl cyclase activity upon treatment with various inhibitors at the concentrations indicated on the horizontal axis are shown (n=4, means±S.E.).
(§1) <Membrane Adenylyl Cyclase Assay>
(§2) Striatal, cardiac and pulmonary tissues were removed from WT (C57BL) (Charles River Laboratories Japan, Inc.) and AC5KO (Circ. Res. 93: 364-371, 2003), both of which were 12-15 weeks of age after birth, and individual membrane protein fractions were prepared therefrom. The resultant membrane preparations were incubated with a reaction mixture (20 mM HEPES, pH 8, 5 mM MgCl2, 0.5 mM EDTA, pH 8, 0.1 mM ATP, 1 mM phospho creatine, 8 U/mL creatine phosphor kinase, 200 μM IBMX) at 30° C. in the presence of forskolin (an activator of adenylyl cyclase) (50 μM, Sigma Cat. No. F6886) and various compounds, to thereby allow production of cAMP. In this assay, striatum- or lung-derived membrane preparations were used in an amount of 1 μg, and heart-derived membrane preparation was used in an amount of 2 μg. 15 minutes (striatum and lung) or 30 minutes (heart) after its start, the reaction was terminated by adding trichloroacetate (TCA) solution to give a final concentration of 5%. Then, the protein was precipitated by centrifugation (13,500×g, 10 min).
(§3) In both membrane adenylyl cyclase assay and cAMP accumulation assay, the amount of cAMP contained in TCA solution was determined by radioimmunoassay using […].

The test system of data set [2] is cardiac function (LVEF) of isoproterenol-loaded mice. The data set can be described thus: Chronic catecholamine loading experiment (isoproterenol heart failure model). The format is in vivo, mouse. The following applies: 15 mg/kg/day for 7 days, osmotic mini-pump, with isoproterenol 60 mg/kg/day; C57BL/6N. The procedure:
FIG. 9 Prophylactic effects on heart failure. Isoproterenol alone (60 mg/kg/day for 7 days) was administered to wild-type mice (C57BL/6N) for one week with an osmotic mini-pump (Alzet2001) (ISO). Other WT received isoproterenol with vidarabine, V2E, V3E or V5E (15 mg/kg/day for 7 days).
<Chronic Catecholamine Loading Experiment>
An osmotic mini-pump filled with isoproterenol was hypodermically implanted in mice, and isoproterenol was administered for 1 week continuously in a sustained-release manner (60 mg/kg). The cardiac function of mice (EF, ejection fraction) was measured by cardiac ultrasonography, and values before and after isoproterenol administration were compared. It is generally known that when isoproterenol is administered to mice with a mini-pump, their cardiac function (EF) decreases (i.e., they manifest heart failure).
Isoproterenol alone (60 mg/kg/day for 7 days) was administered to WT (C57BL/6N) for 1 week with an osmotic mini-pump (Alzet 2001). Other WT received isoproterenol and, at the same time, vidarabine, V2E, V3E or V5E (15 mg/kg/day for 7 days).

The target of data set [3] is T2, adenylyl cyclase activity in the striatum (type 5 adenylyl cyclase) (Mus musculus, UniProt P84309).
T2 construct: IC50 on adenylyl cyclase activity in the striatum; other: WT; estimated from 10, 50 and 100 μM; other: 100 μM compound
The experiment in a line: Membrane adenylyl cyclase assay, WT striatal membrane, forskolin-stimulated. It is filed as biochemical. The following applies: 100 μM compound; 50 μM forskolin; WT striatal membrane; read-out: forskolin-stimulated adenylyl cyclase activity (relative to activity without inhibitor = 100). The procedure: FIG. 2 Inhibitory effects of various compounds on adenylyl cyclase activity in mouse striatum. The striatum is part of the brain. Here, it is known that type 5 adenylyl cyclase occupies almost all of the enzyme activity. […] Relative values are shown with adenylyl cyclase activity in the presence of 50 μM forskolin but in the absence of inhibitors being taken as 100 (n=4, means±S.E.).
as §1, §2, §3

Another data set deals with H9c2 cells. The data set can be described thus: cAMP accumulation assay in H9c2 cells, forskolin stimulation. It is filed as cell-based, rat. The following applies: 50 μM compound, 100 μM forskolin, n=1, preliminary. As for the experimental part:
[…] <H9c2 Cultured Cells> […] No. D6429) in the presence of 95% air+5% CO2 at 37° C. 80-90% confluent H9c2 cells were suspended in 10% FBS-containing DMEM. The cell suspension (500 μl) was added to each well of 24-well plates to give a density of 40,000 cells/well, and incubated overnight at 37° C. Subsequently, cells were incubated in serum-free DMEM (500 μl/well) for 48 hours and subjected to cAMP accumulation assay. <cAMP Accumulation Assay> H9c2 cells were incubated in the presence of 500 μM IBMX for 20 minutes at 37° C. Then, various vidarabine derivatives were added to the culture broth to give a concentration of 50 μM. Cells were further incubated for 10 minutes at 37° C. […] Cells were further incubated at 4° C. overnight. Similar experiments were also carried out on rat adult cultured cardiac myocytes under stimulation with various vidarabine derivatives (10 μM) and forskolin (5 μM). In both membrane adenylyl cyclase assay and cAMP accumulation assay, the amount of cAMP contained in TCA solution was determined by radioimmunoassay using […].
A general note: cAMP levels reflect the balance of adenylyl cyclase and phosphodiesterase activity.

Data set [4] concerns rat embryo cultured cardiac myocytes. The experiment in a line: TUNEL staining of cardiac myocytes (isoproterenol-induced apoptosis). The following applies: 10^−5 M compound with isoproterenol 10^−5 M, 48 hours. The format is cell-based. The procedure: FIG. 10 TUNEL staining of cardiac myocytes. To a culture both of neonatal rat cardiac myocytes, isoproterenol (10^−5 M) either alone or in combination with vidarabine, V2E, V3E or VSE was added for stimulation (48 hours). Then, apoptosis positive cells were evaluated by TUNEL staining.
<TUNEL Staining of Cardiac Myocytes>
A culture broth of rat embryo cultured cardiac myocytes (pregnant Wistar rats were purchased from Nippon SLC) was stimulated (48 hours) with isoproterenol (10^−5 M) either alone or in combination with vidarabine, V2E, V3E or V5E (10^−5 M). Then, apoptosis positive cells were evaluated by TUNEL staining.

Data set [5] is described as follows: Toxicity test (blood BUN, creatinine, GPT, GOT). It is filed as in vivo, mouse. The following applies: 15 mg/kg/day for 7 days, osmotic mini-pump. As for the experimental part: FIG. 11 Toxicity test. Vidarabine, V2E, V3E and V5E were administered individually with an osmotic mini-pump (15 mg/kg/day for 7 days). Then, blood samples were taken and subjected to BUN, creatinine, GPT and GOT measurements. The results were compared with the results from a control group.
Vidarabine, V2E, V3E and V5E were administered individually to WT (C57BL/6N; Nippon SLC) with an osmotic mini-pump (15 mg/kg/day for 7 days). Then, blood samples were taken and subjected to BUN, creatinine, OPT and GOT measurements. The results were compared with the results from control group.

pIC50: −log10 of the molar value.

What is called pIC50 is −log10 of the IC50, conventionally taken in molar units.

T2 sequence (P84309 whole entry): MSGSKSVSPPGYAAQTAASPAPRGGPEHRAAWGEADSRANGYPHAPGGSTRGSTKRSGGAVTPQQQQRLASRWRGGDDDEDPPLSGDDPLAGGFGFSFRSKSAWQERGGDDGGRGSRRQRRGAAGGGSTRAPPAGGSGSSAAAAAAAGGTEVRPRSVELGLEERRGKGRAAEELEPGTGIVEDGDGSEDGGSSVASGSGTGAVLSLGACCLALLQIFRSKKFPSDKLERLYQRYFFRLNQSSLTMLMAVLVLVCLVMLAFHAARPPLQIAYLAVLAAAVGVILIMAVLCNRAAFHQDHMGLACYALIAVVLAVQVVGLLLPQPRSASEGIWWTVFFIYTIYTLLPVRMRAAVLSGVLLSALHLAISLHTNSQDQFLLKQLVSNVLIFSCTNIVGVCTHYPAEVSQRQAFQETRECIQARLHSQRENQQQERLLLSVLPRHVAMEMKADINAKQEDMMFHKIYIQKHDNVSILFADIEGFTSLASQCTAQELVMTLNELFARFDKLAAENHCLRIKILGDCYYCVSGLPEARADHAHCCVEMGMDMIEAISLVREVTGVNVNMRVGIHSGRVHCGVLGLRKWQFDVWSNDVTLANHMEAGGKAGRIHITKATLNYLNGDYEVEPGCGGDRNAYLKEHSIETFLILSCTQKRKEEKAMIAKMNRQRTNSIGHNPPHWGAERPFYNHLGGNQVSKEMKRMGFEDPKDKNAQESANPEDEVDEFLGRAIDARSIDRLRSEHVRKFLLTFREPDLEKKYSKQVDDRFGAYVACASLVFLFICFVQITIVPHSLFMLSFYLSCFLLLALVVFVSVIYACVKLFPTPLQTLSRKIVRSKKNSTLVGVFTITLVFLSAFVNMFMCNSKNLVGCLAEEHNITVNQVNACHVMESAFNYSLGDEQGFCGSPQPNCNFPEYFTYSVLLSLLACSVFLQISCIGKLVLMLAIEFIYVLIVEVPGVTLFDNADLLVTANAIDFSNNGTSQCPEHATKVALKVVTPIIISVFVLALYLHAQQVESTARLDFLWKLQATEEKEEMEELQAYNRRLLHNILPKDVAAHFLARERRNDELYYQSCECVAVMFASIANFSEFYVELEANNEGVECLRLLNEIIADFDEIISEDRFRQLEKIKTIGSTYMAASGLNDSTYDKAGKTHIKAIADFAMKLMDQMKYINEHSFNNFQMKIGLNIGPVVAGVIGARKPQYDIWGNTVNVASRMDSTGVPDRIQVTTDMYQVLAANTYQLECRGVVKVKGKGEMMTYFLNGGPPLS

Turning to `CN(C)CC(=O)OC1C(O)C(CO)OC1n1cnc2c(N)ncnc21` (centres unmarked) [V2E, 2-O—(N,N-Dimethylglycyl)Vidarabine], the pIC50 in data set [1] is 4.75. For the same compound, the “inhibition of the isoproterenol-induced decrease of cardiac function (LVEF)” value in data set [2] is given as “comparable to that of vidarabine”. Besides, the activity at 100 µM in data set [3] is about 24.5%. Also, the “level of cAMP accumulated in response to forskolin (relative to control)” value (shortened to “level … (relative to control)”) in the data set with H9c2 cells is “about 57.1%”. Moreover, the “inhibitory effect on isoproterenol stimulation-induced apoptosis (TUNEL positive cells)” value (“inhibitory effect” for short) in data set [4] was “comparable to the effect of vidarabine”. For the same compound, in data set [5], the “BUN compared with control group” value is “No significant increase”, the “GOT compared with control group” value is recorded as “No significant increase”, the “OPT compared with control group” value is given as “No significant increase” and the “creatinine compared with control group” value is listed as “No significant increase”.
For the compound `CN(C)CC(=O)OC1C(CO)OC(n2cnc3c(N)ncnc32)C1O` (centres unmarked) [V3E, 3-O—(N,N-Dimethylglycyl)Vidarabine], the pIC50 in data set [1] is 4.70. In data set [2], the “inhibition of the isoproterenol-induced decrease of cardiac function (LVEF)” value is on record as “comparable to that of vidarabine”. The activity at 100 µM in data set [3] was about 25.1%. The “level … (relative to control)” value in the data set with H9c2 cells was “about 45.7%”. In addition, in data set [4], the “inhibitory effect” value is reported as “comparable to the effect of vidarabine”. Besides, in data set [5], the “BUN compared with control group” value is “No significant increase”, the “GOT compared with control group” value is recorded as “No significant increase”, the “OPT compared with control group” value is on record as “No significant increase” and the “creatinine compared with control group” value was “No significant increase”.
For the compound `CN(C)CC(=O)OCC1OC(n2cnc3c(N)ncnc32)C(O)C1O` (centres unmarked) [V5E, 5-O—(N,N-Dimethylglycyl)Vidarabine], the pIC50 in data set [1] is 4.37. The “inhibition of the isoproterenol-induced decrease of cardiac function (LVEF)” value in data set [2] is “comparable to that of vidarabine”. Also, in data set [3], the activity at 100 µM was about 24.9%. For the same compound, in the data set with H9c2 cells, the “level … (relative to control)” value is recorded as “about 82.5%”. In addition, the “inhibitory effect” value in data set [4] is “comparable to the effect of vidarabine”. Besides, in data set [5], the “BUN compared with control group” value was “No significant increase”, the “GOT compared with control group” value was “No significant increase”, the “OPT compared with control group” value is reported as “No significant increase” and the “creatinine compared with control group” value is “No significant increase”.
As for `Nc1ncnc2c1ncn2[C@@H]1O[C@H](CO)[C@@H](O)[C@@H]1O` [vidarabine, reference compound], the pIC50 in data set [1] was 5.11. Besides, the “inhibition of the isoproterenol-induced decrease of cardiac function (LVEF)” value in data set [2] is reported as “significantly inhibited”. Further, in data set [3], the activity at 100 µM is about 17.3%. Further, the “level … (relative to control)” value in the data set with H9c2 cells was “about 35.1%”. For the same compound, in data set [5], the “BUN compared with control group” value is on record as “No significant increase”, the “GOT compared with control group” value is reported as “No significant increase”, the “OPT compared with control group” value is recorded as “No significant increase” and the “creatinine compared with control group” value is “No significant increase”.
